Source: ChEMBL document CHEMBL4422615, “Novel non-xanthine antagonist of the A2B adenosine receptor: From HTS hit to lead structure” (Eur J Med Chem, 2019)
The source made the active and inactive calls. The rule behind the calls is not given here.

Experiments:
[1] = Fraction unbound in dog plasma by equilibrium dialysis method; format: ADME, cell-free, Canis lupus familiaris
[2] = Fraction unbound in mouse plasma by equilibrium dialysis method; format: ADME, cell-free
Cytochrome P450 2D6 = Cytochrome P450 2D6 (Homo sapiens, UniProt P10635); assay: Inhibition of CYP2D6 in human liver microsomes using dextromethorphan as substrate after 15 mins in presence of NADPH by LC-MS/MS analysis; format: ADME
[3] = Blood clearance in mouse by measuring intrinsic clearance in mouse liver microsomes by MS/MS analysis; format: ADME
[4] = Oral bioavailability in mouse at 1 mg/kg administered as bolus dose by HPLC-MS/MS analysis; format: ADME, organism-based; conditions: in vivo
Mus musculus = assay: Antifibrotic activity in FITC-induced C57BL/6J mouse pulmonary fibrosis model assessed as reduction in osteopontin level in BALF at 100 to 500 mg/kg, bid administered via gavage pretreated for 45 mins before FITC addition until 72 hrs after FITC application by ELISA; format: functional, organism-based
[5] = target: T1, Nuclear receptor subfamily 1 group I member 2 (Homo sapiens, UniProt O75469); assay: Activation of PXR in human HepG2 cells assessed as induction of CYP3A4 expression by luciferase reporter gene assay; format: ADME, cell-based
T1 sequence (O75469 whole entry): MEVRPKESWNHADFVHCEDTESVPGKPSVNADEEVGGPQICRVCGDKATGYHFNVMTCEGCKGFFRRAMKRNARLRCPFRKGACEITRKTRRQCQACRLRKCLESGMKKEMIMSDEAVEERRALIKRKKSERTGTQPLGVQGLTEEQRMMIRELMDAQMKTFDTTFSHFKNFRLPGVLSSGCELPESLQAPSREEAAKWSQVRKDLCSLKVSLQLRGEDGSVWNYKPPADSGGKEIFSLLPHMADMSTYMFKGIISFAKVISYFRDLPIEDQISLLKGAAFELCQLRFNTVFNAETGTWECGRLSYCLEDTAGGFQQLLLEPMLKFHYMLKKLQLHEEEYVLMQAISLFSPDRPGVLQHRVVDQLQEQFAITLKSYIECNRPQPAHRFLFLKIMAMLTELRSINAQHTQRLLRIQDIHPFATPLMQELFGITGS

[6] = Clearance in mouse plasma at 0.3 mg/kg, iv administered as bolus dose by HPLC-MS/MS analysis; format: ADME, organism-based
[7] = Volume of distribution at steady state in mouse at 0.3 mg/kg, iv administered as bolus dose by HPLC-MS/MS analysis; format: ADME, organism-based; conditions: in vivo, read-out: Vdss
[8] = Half life in mouse at 0.3 mg/kg, iv administered as bolus dose by HPLC-MS/MS analysis; format: ADME, organism-based; conditions: in vivo
[9] = Dose normalized AUC in rat at 0.3 mg/kg, iv administered as infusion for 15 mins by HPLC-MS/MS analysis; format: ADME, organism-based; conditions: in vivo, 0.25 h
[10] = Clearance in rat blood at 0.3 mg/kg, iv administered as bolus dose by HPLC-MS/MS analysis; format: ADME, organism-based
[11] = MRT in rat at 0.3 mg/kg, iv administered as infusion for 15 mins by HPLC-MS/MS analysis; format: ADME, organism-based; conditions: in vivo
[12] = Dose normalized AUC in dog at 0.3 mg/kg, iv administered as infusion for 15 mins by HPLC-MS/MS analysis; format: ADME, organism-based, Canis lupus familiaris; conditions: in vivo, 0.25 h
[13] = Clearance in dog plasma at 0.3 mg/kg, iv administered as bolus dose by HPLC-MS/MS analysis; format: ADME, organism-based, Canis lupus familiaris
[14] = Dose normalized AUC in rat at 1 mg/kg, po for 15 mins by HPLC-MS/MS analysis; format: ADME, organism-based; conditions: in vivo, 0.25 h
[15] = Dose normalized Cmax in rat at 1 mg/kg, po for 15 mins by HPLC-MS/MS analysis; format: ADME, organism-based; conditions: in vivo, 0.25 h
[16] = Dose normalized Cmax in dog at 1 mg/kg, po for 15 mins by HPLC-MS/MS analysis; format: ADME, organism-based, Canis lupus familiaris; conditions: in vivo, 0.25 h
[17] = Half life in dog at 1 mg/kg, po for 15 mins by HPLC-MS/MS analysis; format: ADME, organism-based, Canis lupus familiaris; conditions: in vivo
Adenosine receptor A2b [18] = target: T2, Adenosine receptor A2b (Homo sapiens, UniProt P29275); assay: Antagonist activity at recombinant human A2B adenosine receptor expressed in CHO cells after 3 to 4 hrs by luciferase reporter gene assay; format: cell-based
T2 sequence (P29275 whole entry): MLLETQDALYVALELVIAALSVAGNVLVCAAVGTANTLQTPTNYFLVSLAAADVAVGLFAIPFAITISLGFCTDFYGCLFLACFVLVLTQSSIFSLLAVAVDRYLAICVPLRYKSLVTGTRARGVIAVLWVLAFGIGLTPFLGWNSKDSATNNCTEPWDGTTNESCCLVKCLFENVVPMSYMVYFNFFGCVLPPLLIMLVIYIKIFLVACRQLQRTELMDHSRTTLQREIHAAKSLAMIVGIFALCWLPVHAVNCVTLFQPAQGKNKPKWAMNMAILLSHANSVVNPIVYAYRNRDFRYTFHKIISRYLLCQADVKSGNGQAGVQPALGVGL

Adenosine receptor A1 = target: T3, Adenosine receptor A1 (Mus musculus, UniProt Q60612); assay: Antagonist activity at recombinant mouse A1 adenosine receptor expressed in CHO cells after 3 to 4 hrs by luciferase reporter gene assay; format: cell-based
T3 sequence (Q60612 whole entry): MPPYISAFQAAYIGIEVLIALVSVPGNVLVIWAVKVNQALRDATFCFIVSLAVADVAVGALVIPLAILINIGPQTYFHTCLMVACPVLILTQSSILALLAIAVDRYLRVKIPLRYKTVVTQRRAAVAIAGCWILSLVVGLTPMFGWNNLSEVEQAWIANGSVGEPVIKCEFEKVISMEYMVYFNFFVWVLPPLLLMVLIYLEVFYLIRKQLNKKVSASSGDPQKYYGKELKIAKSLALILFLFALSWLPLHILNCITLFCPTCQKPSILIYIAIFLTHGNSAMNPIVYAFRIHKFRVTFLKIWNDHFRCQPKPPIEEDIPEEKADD

Adenosine receptor A2a = Adenosine receptor A2a (Mus musculus, UniProt Q60613); assay: Antagonist activity at recombinant mouse A2A adenosine receptor expressed in CHO cells after 3 to 4 hrs by luciferase reporter gene assay; format: cell-based
Adenosine receptor A2b [19] = target: T4, Adenosine receptor A2b (Rattus norvegicus, UniProt P29276); assay: Antagonist activity at recombinant rat A2B adenosine receptor expressed in CHO cells after 3 to 4 hrs by luciferase reporter gene assay; format: cell-based
T4 sequence (P29276 whole entry): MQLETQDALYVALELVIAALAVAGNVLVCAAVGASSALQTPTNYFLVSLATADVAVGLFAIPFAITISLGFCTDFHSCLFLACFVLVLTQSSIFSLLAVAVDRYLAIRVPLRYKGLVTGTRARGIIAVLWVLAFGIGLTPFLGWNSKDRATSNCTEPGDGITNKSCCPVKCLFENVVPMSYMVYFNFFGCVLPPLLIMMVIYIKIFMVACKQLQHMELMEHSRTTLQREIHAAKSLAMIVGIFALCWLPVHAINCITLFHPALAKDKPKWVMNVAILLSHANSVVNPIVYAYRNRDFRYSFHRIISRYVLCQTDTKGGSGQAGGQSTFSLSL

[20] = Toxicity in silica-induced C57BL/6J mouse pulmonary fibrosis model assessed as change in body weight at 100 to 500 mg/kg, bid administered via gavage treated from day 1 until day 7 after silica application; format: organism-based; conditions: in vivo, po

Sequence of Adenosine receptor A2a (Q60613 whole entry): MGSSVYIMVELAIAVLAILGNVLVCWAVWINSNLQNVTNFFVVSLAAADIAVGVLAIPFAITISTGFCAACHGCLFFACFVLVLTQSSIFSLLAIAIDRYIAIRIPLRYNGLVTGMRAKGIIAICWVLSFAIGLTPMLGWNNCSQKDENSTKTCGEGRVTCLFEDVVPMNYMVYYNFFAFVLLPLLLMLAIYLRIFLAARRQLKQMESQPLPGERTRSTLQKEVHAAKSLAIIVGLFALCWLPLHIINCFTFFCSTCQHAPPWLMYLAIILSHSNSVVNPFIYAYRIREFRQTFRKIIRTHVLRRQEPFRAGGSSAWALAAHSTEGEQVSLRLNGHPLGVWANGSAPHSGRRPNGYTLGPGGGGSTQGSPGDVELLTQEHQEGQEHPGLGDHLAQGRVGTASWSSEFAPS
Sequence of Cytochrome P450 2D6 (P10635 whole entry): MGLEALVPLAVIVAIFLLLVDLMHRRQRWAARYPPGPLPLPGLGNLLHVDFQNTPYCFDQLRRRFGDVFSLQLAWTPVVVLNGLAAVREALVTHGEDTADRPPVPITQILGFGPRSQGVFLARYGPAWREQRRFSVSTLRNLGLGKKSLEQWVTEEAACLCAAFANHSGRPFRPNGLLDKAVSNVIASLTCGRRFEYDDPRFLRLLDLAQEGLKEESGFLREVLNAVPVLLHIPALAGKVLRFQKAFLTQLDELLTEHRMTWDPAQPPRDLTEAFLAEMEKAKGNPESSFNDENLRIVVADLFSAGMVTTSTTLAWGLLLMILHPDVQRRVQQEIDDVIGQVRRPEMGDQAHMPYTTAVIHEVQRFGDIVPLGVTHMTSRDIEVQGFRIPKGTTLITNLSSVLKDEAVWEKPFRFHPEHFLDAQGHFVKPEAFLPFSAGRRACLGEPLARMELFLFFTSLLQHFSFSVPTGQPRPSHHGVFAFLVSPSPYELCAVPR

fraction unbound [1]: 0.54 | fraction unbound [2]: 0.3 | IC50 (Cytochrome P450 2D6): > 20000 nM | CLhep predicted [3]: < 8.33 mL/min/kg | bioavailability [4]: 65% | MEC [5]: 21 ×10⁻⁶ mol/L | clearance [6]: 10.2 mL/min/kg | Vd [7]: 0.4 L/kg | half-life [8]: 1.2 h | AUC/dose [9]: 0.88 kg·h/L | clearance [10]: 23.3 mL/min/kg | MRT [11]: 1.3 h | AUC/dose [12]: 2.5 kg·h/L | clearance [13]: 6.67 mL/min/kg | AUC/dose [14]: 0.78 kg·h/L | Cmax/dose [15]: 0.33 kg/L | Cmax/dose [16]: 0.61 kg/L | half-life [17]: 5.1 h | IC50 (Adenosine receptor A2b [18]): 66 nM | IC50 (Adenosine receptor A1): > 6700 nM | IC50 (Adenosine receptor A2a): 470 nM | IC50 (Adenosine receptor A2b [19]): 280 nM
Compound: CCn1c(=O)c2c(C)c(C(=O)N3CCC(O)CC3)sc2n(CCC(F)(F)F)c1=O
Activity (Mus musculus): Active | Activity [20]: Non-Toxic
